{
  "source": "PubChem BioAssay AID1259409",
  "about": "(Chemical Carcinogenesis Research Information System (CCRIS), 2018)",
  "origin": "cited, not measured here",
  "tested_on": "rodent chemically induced tumor inhibition, incidence and multiplicity",
  "test": "CCRIS tumor inhibitor studies",
  "data": [
    {"smiles": "C[C@]12CC[C@H](OS(=O)(=O)O)CC1=CC[C@@H]1[C@@H]2CC[C@]2(C)C(=O)CC[C@@H]12", "values": [
      {"measurement": "tumour outcome (control, treated, inhibition, significance)", "setting": "Carcinogen: 7,12-DIMETHYLBENZ[A]ANTHRACENE, 57-97-6, Dose [Inhibitor]: 0, 1 X 0.5 CM LONG SILASTIC IMPLANT 7 D PRIOR TO CARCINOGEN TREATMENT (STUDY DURATION: 111 D), Route [Inhibitor]: SUBCUTANEOUS IMPLANT, Species: RAT, Strain/Sex: SPRAGUE-DAWLEY/FEMALE, Target Tissue: Type of Lesion: MAMMARY GLAND: CARCINOMA, Dose [Carcinogen]: 20 MG IN 1 ML CORN OIL ADMINISTERED ON DAYS 50 TO 52 OF AGE, Promoter: NONE USED", "value": "68%, 41%, 40%, not significant"},
      {"measurement": "tumour outcome (control, treated, inhibition, significance)", "setting": "Carcinogen: 7,12-DIMETHYLBENZ[A]ANTHRACENE, 57-97-6, Dose [Inhibitor]: 0, 1 X 1 CM LONG SILASTIC IMPLANT 7 D PRIOR TO CARCINOGEN TREATMENT (STUDY DURATION: 111 D), Route [Inhibitor]: SUBCUTANEOUS IMPLANT, Species: RAT, Strain/Sex: SPRAGUE-DAWLEY/FEMALE, Target Tissue: Type of Lesion: MAMMARY GLAND: CARCINOMA, Dose [Carcinogen]: 20 MG IN 1 ML CORN OIL ADMINISTERED ON DAYS 50 TO 52 OF AGE, Promoter: NONE USED", "value": "68%, 44%, 35%, not significant"},
      {"measurement": "tumour outcome (control, treated, inhibition, significance)", "setting": "Carcinogen: 7,12-DIMETHYLBENZ[A]ANTHRACENE, 57-97-6, Dose [Inhibitor]: 0, 1 X 3 CM LONG SILASTIC IMPLANT 7 D PRIOR TO CARCINOGEN TREATMENT (STUDY DURATION: 111 D), Route [Inhibitor]: SUBCUTANEOUS IMPLANT, Species: RAT, Strain/Sex: SPRAGUE-DAWLEY/FEMALE, Target Tissue: Type of Lesion: MAMMARY GLAND: CARCINOMA, Dose [Carcinogen]: 20 MG IN 1 ML CORN OIL ADMINISTERED ON DAYS 50 TO 52 OF AGE, Promoter: NONE USED", "value": "68%, 22%, 68%, p<0.01"},
      {"measurement": "tumour outcome (control, treated, inhibition, significance)", "setting": "Carcinogen: 7,12-DIMETHYLBENZ[A]ANTHRACENE, 57-97-6, Dose [Inhibitor]: 0, 3 X 3 CM LONG SILASTIC IMPLANT 7 D PRIOR TO CARCINOGEN TREATMENT (STUDY DURATION: 111 D), Route [Inhibitor]: SUBCUTANEOUS IMPLANT, Species: RAT, Strain/Sex: SPRAGUE-DAWLEY/FEMALE, Target Tissue: Type of Lesion: MAMMARY GLAND: CARCINOMA, Dose [Carcinogen]: 20 MG IN 1 ML CORN OIL ADMINISTERED ON DAYS 50 TO 52 OF AGE, Promoter: NONE USED", "value": "68%, 11%, 84%, p<0.01"},
      {"measurement": "tumour outcome (control, treated, inhibition, significance)", "setting": "Carcinogen: 7,12-DIMETHYLBENZ[A]ANTHRACENE, 57-97-6, Dose [Inhibitor]: 0, 6 X 3 CM LONG SILASTIC IMPLANT 7 D PRIOR TO CARCINOGEN TREATMENT (STUDY DURATION: 111 D), Route [Inhibitor]: SUBCUTANEOUS IMPLANT, Species: RAT, Strain/Sex: SPRAGUE-DAWLEY/FEMALE, Target Tissue: Type of Lesion: MAMMARY GLAND: CARCINOMA, Dose [Carcinogen]: 20 MG IN 1 ML CORN OIL ADMINISTERED ON DAYS 50 TO 52 OF AGE, Promoter: NONE USED", "value": "68%, 4%, 94%, p<0.01"},
      {"measurement": "tumour outcome (control, treated, inhibition, significance)", "setting": "Carcinogen: N-NITROBIS(2-OXOPROPYL)AMINE, 60599-38-4, Dose [Inhibitor]: 0, 350 MG/KG ONCE ON DAY 1 OF STUDY (STUDY DURATION: 70 D), Route [Inhibitor]: INTRAPERITONEAL, Species: HAMSTER, Strain/Sex: SYRIAN/FEMALE, Target Tissue: Type of Lesion: PANCREAS: CARCINOMA, Dose [Carcinogen]: 70 MG/KG ONCE ON DAY 1 OF STUDY THEN ONCE ON DAYS 17 AND 32 OF STUDY, Promoter: ETHIONINE, 67-21-0, METHIONINE, 63-68-3, Promoter: ETHIONINE, 67-21-0, METHIONINE, 63-68-3", "value": "8/15 (53%), 6/15 (40%), 25%, not significant"},
      {"measurement": "tumour outcome (control, treated, inhibition, significance)", "setting": "Carcinogen: N-NITROSOBIS(2-OXOPROPYL)AMINE, 60599-38-4, Dose [Inhibitor]: 0, 175 MG/KG ONCE ON DAY 1 OF STUDY (STUDY DURATION: 70 D), Route [Inhibitor]: INTRAPERITONEAL, Species: HAMSTER, Strain/Sex: SYRIAN/FEMALE, Target Tissue: Type of Lesion: PANCREAS: CARCINOMA, Dose [Carcinogen]: 70 MG/KG ONCE ON DAY 1 OF STUDY THEN ONCE ON DAYS 17 AND 32 OF STUDY, Promoter: ETHIONINE, 67-21-0, METHIONINE, 63-68-3, Promoter: ETHIONINE, 67-21-0, METHIONINE, 63-68-3", "value": "8/15 (53%), 9/16 (56%), -7%, not significant"}
    ]},
    {"smiles": "CC(C(=O)O)c1ccc2c(c1)[nH]c1ccc(Cl)cc12", "note": "(stereo unspecified)", "values": [
      {"measurement": "tumour outcome (control, treated, inhibition, significance)", "setting": "Carcinogen: 7,12-DIMETHYLBENZ[A]ANTHRACENE, 57-97-6, Dose [Inhibitor]: 0, 0.02% IN 20% FAT DIET CONTAINING 0.5% LINOLEIC ACID BEGINNING 7 D POST CARCINOGEN DOSE AND CONTINUING FOR DURATION OF, Route [Inhibitor]: ORAL, Species: RAT, Strain/Sex: SPRAGUE-DAWLEY/FEMALE, Target Tissue: Type of Lesion: MAMMARY GLAND: ADENOCARCINOMA, Dose [Carcinogen]: 5 MG AT 50-53 DAYS OF AGE, Promoter: NONE USED", "value": "56%, 52%, 7%, not calculated"},
      {"measurement": "tumour outcome (control, treated, inhibition, significance)", "setting": "Carcinogen: 7,12-DIMETHYLBENZ[A]ANTHRACENE, 57-97-6, Dose [Inhibitor]: 0, 0.02% IN 20% FAT DIET CONTAINING 4% LINOLEIC ACID BEGINNING 7 D POST CARCINOGEN DOSE AND CONTINUING FOR DURATION OF S, Route [Inhibitor]: ORAL, Species: RAT, Strain/Sex: SPRAGUE-DAWLEY/FEMALE, Target Tissue: Type of Lesion: MAMMARY GLAND: ADENOCARCINOMA, Dose [Carcinogen]: 5 MG AT 50-53 DAYS OF AGE, Promoter: NONE USED", "value": "53%, 61%, -15%, not calculated"},
      {"measurement": "tumour outcome (control, treated, inhibition, significance)", "setting": "Carcinogen: 7,12-DIMETHYLBENZ[A]ANTHRACENE, 57-97-6, Dose [Inhibitor]: 0, 0.02% IN 20% FAT DIET CONTAINING 12% LINOLEIC ACID BEGINNING 7 D POST CARCINOGEN DOSE AND CONTINUING FOR DURATION OF, Route [Inhibitor]: ORAL, Species: RAT, Strain/Sex: SPRAGUE-DAWLEY/FEMALE, Target Tissue: Type of Lesion: MAMMARY GLAND: ADENOCARCINOMA, Dose [Carcinogen]: 5 MG AT 50-53 DAYS OF AGE, Promoter: NONE USED", "value": "69%, 55%, 20%, not calculated"},
      {"measurement": "tumour outcome (control, treated, inhibition, significance)", "setting": "Carcinogen: 7,12-DIMETHYLBENZ[A]ANTHRACENE, 57-97-6, Dose [Inhibitor]: 0, 0.02% IN HIGH FAT DIET (20% CORN OIL) BEGINNING 7 D POST CARCINOGEN DOSE AND CONTINUING FOR DURATION OF STUDY (STUDY, Route [Inhibitor]: ORAL, Species: RAT, Strain/Sex: SPRAGUE-DAWLEY/FEMALE, Target Tissue: Type of Lesion: MAMMARY GLAND: ADENOCARCINOMA, Dose [Carcinogen]: 5 MG AT 50-53 DAYS OF AGE, Promoter: NONE USED", "value": "88%, 91%, -3%, not calculated"},
      {"measurement": "tumour outcome (control, treated, inhibition, significance)", "setting": "Carcinogen: 7,12-DIMETHYLBENZ[A]ANTHRACENE, 57-97-6, Dose [Inhibitor]: 0, 0.02% IN HIGH FAT DIET (20% CORN OIL) BEGINNING 7 D POST CARCINOGEN DOSE AND CONTINUING FOR DURATION OF STUDY (STUDY, Route [Inhibitor]: ORAL, Species: RAT, Strain/Sex: SPRAGUE-DAWLEY/FEMALE, Target Tissue: Type of Lesion: MAMMARY GLAND: TUMOR, Dose [Carcinogen]: 5 MG AT 50-53 DAYS OF AGE, Promoter: NONE USED", "value": "47%, 56%, -19%, not calculated"},
      {"measurement": "tumour outcome (control, treated, inhibition, significance)", "setting": "Carcinogen: 7,12-DIMETHYLBENZ[A]ANTHRACENE, 57-97-6, Dose [Inhibitor]: 0, 0.02% IN NORMAL FAT DIET (5% CORN OIL) BEGINNING 7 D POST CARCINOGEN DOSE AND CONTINUING FOR DURATION OF STUDY (STUDY, Route [Inhibitor]: ORAL, Species: RAT, Strain/Sex: SPRAGUE-DAWLEY/FEMALE, Target Tissue: Type of Lesion: MAMMARY GLAND: ADENOCARCINOMA, Dose [Carcinogen]: 5 MG AT 50-53 DAYS OF AGE, Promoter: NONE USED", "value": "59%, 83%, -41%, not calculated"}
    ]},
    {"smiles": "c1ccc(Cn2ccnc2)cc1", "values": [
      {"measurement": "tumour outcome (control, treated, inhibition, significance)", "setting": "Carcinogen: 7,12-DIMETHYLBENZ[A]ANTHRACENE, 57-97-6, Dose [Inhibitor]: 100 UG IN 0.2 ML ACETONE ONCE 5 MIN BEFORE CARCINOGEN TREATMENT (STUDY DURATION: 31 WK), Route [Inhibitor]: DERMAL, Species: MOUSE, Strain/Sex: CD-1/FEMALE, Target Tissue: Type of Lesion: SKIN: PAPILLOMA, Dose [Carcinogen]: 10 NMOL IN 0.2 ML ACETONE ONCE, Promoter: 12-O-TETRADECANOYLPHORBOL-13-ACETATE, 16561-29-8", "value": "87%, 80%, 8%, not calculated"},
      {"measurement": "tumour outcome (control, treated, inhibition, significance)", "setting": "Carcinogen: BENZO[A]PYRENE, 50-32-8, Dose [Inhibitor]: 100 UG IN 0.2 ML ACETONE ONCE 5 MINUTES BEFORE CARCINOGEN TREATMENT (STUDY DURATION: 31 WK), Route [Inhibitor]: DERMAL, Species: MOUSE, Strain/Sex: CD-1/FEMALE, Target Tissue: Type of Lesion: SKIN: PAPILLOMA, Dose [Carcinogen]: 400 NMOL IN 0.2 ML ACETONE ONCE, Promoter: 12-O-TETRADECANOYLPHORBOL-13-ACETATE, 16561-29-8", "value": "90%, 78%, 13%, not calculated"}
    ]},
    {"smiles": "CC1(C)[C@H](O)CC[C@]2(C)C3=CC[C@@]4(C)[C@@H]5C[C@](C)(CO)CC[C@]5(C)CC[C@]4(C)C3=CC[C@@H]12", "values": [
      {"measurement": "tumour outcome (control, treated, inhibition, significance)", "setting": "Carcinogen: 7,12-DIMETHYLBENZ[A]ANTHRACENE, 57-97-6, Dose [Inhibitor]: 0, 2 UMOL IN 100 µL ACETONE:DMSO (9:1) 2/WK FOR 17 WK APPLIED 30 MIN PRIOR TO EACH PROMOTER DOSE (STUDY DURATION: 18 WK), Route [Inhibitor]: DERMAL, Species: MOUSE, Strain/Sex: ICR/FEMALE, Target Tissue: Type of Lesion: SKIN: PAPILLOMA, Dose [Carcinogen]: 50 UG IN 100 µL ACETONE ONCE, Promoter: 12-O-TETRADECANOYLPHORBOL-13-ACETATE, 16561-29-8", "value": "87%, 13%, 85%, not calculated"}
    ]}
  ]
}
